Consider 1 compound from PMC9951290, “Comprehensive Structure–Activity Relationship Studies of Cepafungin Enabled by Biocatalytic C–H Oxidations” (ACS Central Science, 2023).

A word on the IC50: it is the concentration that gives 50% inhibition. What is called EC50 is the concentration needed to bring the measured effect to its halfway point.

The structures appear in SMILES notation.

Assay [1] addresses T1, proteasome subunit β5 (Homo sapiens, UniProt P28074).
T1 construct: Following incubation of the compounds in cell culture for 6 h, cells were lysed; endogenous in cells; host or cells: RPMI 8226 (human multiple myeloma)
The settings on record: in situ in RPMI 8226 cells; preliminary analogue series, Figure 2; cited from earlier work.

Assay [2] deals with proteasome subunits β2/2i, β5/5i, β1i, β1. Conditions: in-gel labeling, cited from earlier work.
Assay [3] relates to β5-subunit. Conditions: purified yeast proteasome; cited from earlier work.
Assay [4] concerns RPMI 8226 cells. The assay can be described thus: Cytotoxicity measurement (WST-1), RPMI 8226. Conditions: Homo sapiens; RPMI 8226, 48 hours, WST-1, n = 3; read-out: Cytotoxicity EC50 (cell viability). Type of assay: cell-based, human. The method, then:
Cellular assays were performed on human multiple myeloma RPMI 8226 cells (Figure 4). First, relative inhibition of proteasome subunits β5 and β2 for all analogues and the natural product was measured at 30 nM compound concentration. Following incubation of the compounds in cell culture for 6 h, cells were lysed, and fluorogenic subunit-specific peptide substrates Suc-LLVY-AMC (β5) or Ac-RLR-AMC (β2) were incubated with the lysates; fluorescence readings provided relative proteasome activity levels in comparison with DMSO (Figure 4A). Next, cytotoxicity screening was performed at 30 and 100 nM concentrations for sufficient coverage of dynamic range (Figure 4B). […] Therefore, the improved cytotoxicity of phenyl cepafungin 50 likely results from a more pronounced loss of β5 function in RPMI 8226 cells. This drastic increase in proteasome inhibition may be due to π-stacking of the lipid tail phenyl ring with the β6 subunit residues Tyr106 and/or Tyr5. The β2 subunit-bound natural product has residues Tyr102 and Phe103 on the adjacent β3 subunit oriented further away from the terminal lipid methyl groups, and presumably would not facilitate π-stacking to the extent possible at the adjacent β6 subunit (see Figure 3 and Figure S4). […] These combined modifications were made in hopes that the effects of both substitutions would be additive. […] The presence of a Thr residue next to the cepafungin macrocycle appears to be favored over the ethyl side chain of desoxy-Thr analogue 44 as indicated by cytotoxicity and hydrogen-bonding seen in the cepafungin-bound crystal structure (Figures 3 and 4B).
AMC (β5) or Ac-RLR-AMC (β2). […]
Cytotoxicity Measurements
in DMSO) or DMSO and cultured for 48 hours. Toxicity was determined using the WST-1 assay
(Roche) according to the protocol of the manufacturer. (n = 3)
Figure S1. […]
In general terms: Tetrazolium dyes change colour on reduction, which living cells bring about.

Assay [5] has as its target T2, proteasome subunit β2 (Homo sapiens, UniProt Q99436).
T2 sequence (Q99436 44-277): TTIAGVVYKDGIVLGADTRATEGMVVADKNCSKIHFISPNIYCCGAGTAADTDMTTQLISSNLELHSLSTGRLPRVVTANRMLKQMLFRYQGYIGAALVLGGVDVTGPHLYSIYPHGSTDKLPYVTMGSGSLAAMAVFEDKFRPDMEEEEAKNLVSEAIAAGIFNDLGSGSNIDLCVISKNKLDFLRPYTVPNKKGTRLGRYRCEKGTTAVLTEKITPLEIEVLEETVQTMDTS
The assay can be described thus: In situ β2 proteasome activity assay (Ac-RLR-AMC) in RPMI 8226 cells. It is filed as cell-based. The settings on record: 6 h, n = 3, Figure 4D. The method, then:
Cellular assays were performed on human multiple myeloma RPMI 8226 cells (Figure 4). First, relative inhibition of proteasome subunits β5 and β2 for all analogues and the natural product was measured at 30 nM compound concentration. Following incubation of the compounds in cell culture for 6 h, cells were lysed, and fluorogenic subunit-specific peptide substrates Suc-LLVY-AMC (β5) or Ac-RLR-AMC (β2) were incubated with the lysates; fluorescence readings provided relative proteasome activity levels in comparison with DMSO (Figure 4A). Next, cytotoxicity screening was performed at 30 and 100 nM concentrations for sufficient coverage of dynamic range (Figure 4B). […] Therefore, the improved cytotoxicity of phenyl cepafungin 50 likely results from a more pronounced loss of β5 function in RPMI 8226 cells. This drastic increase in proteasome inhibition may be due to π-stacking of the lipid tail phenyl ring with the β6 subunit residues Tyr106 and/or Tyr5. […]
Mammalian cells were maintained in RPMI-1640 media. […] Cells were lysed by needle sonication to obtain cell lysates and protein concentration was determined using the […]
fluorescence was read at A360ex/A460em. […]
in DMSO) or DMSO and cultured for 48 hours. Toxicity was determined using the WST-1 assay (Roche) according to the protocol of the manufacturer. […]

For the compound `CC(C)CCCCCC=CC=CC(=O)NC(C(=O)NC1CC(O)CCNC(=O)C=CC(C)NC1=O)C(C)O` (stereo not drawn) [compound 1, cepafungin I], the IC50 in assay [1] was 16 ± 1 nM; in assay [5] it was 43 nM. Further, the “engagement of β1” value in assay [2] (RPMI 8226, even at high concentrations) is “very little engagement”. In assay [2] (RPMI 8226), the “competition for subunits β2/2i, β5/5i and β1i” value is on record as “low-nanomolar concentrations”. The “fold improvement of β5-subunit inhibition compared to glidobactin A (2)” value in assay [3] is “ca. 5 fold”. Also, in assay [4], the 50% effective concentration (EC50) came to 14 nM.
